In PubChem BioAssay AID248 (DTP/NCI, 2004):
Inconclusive results and toxic doses are left out. Cut-off read from the data, not from the text of the source: active = T/C of 150% or more; inactive = T/C below 125%.

Tested on: L1210 leukemia ip in BDF1 mice, survival T/C
Assay: NCI In Vivo Anticancer Drug Screen. Data for tumor model L1210 Leukemia (intraperitoneal) in B6D2F1 (BDF1) mice
Settings: endpoint: mean survival time, higher = longer survival
Outline: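 Tumor was transplanted into mice, which were then dosed with test compound or vehicle alone. Survival was recorded for each group, and the treated figure was expressed relative to the control figure.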

[1] = dose: 100.0 mg/kg/injection, schedule: Q04DX003 (ip), vehicle: Klucel (hydroxypropylcellulose) (HPC)
[2] = dose: 100.0 mg/kg/injection, schedule: Q04DX003 (ip), vehicle: saline
[3] = dose: 200.0 mg/kg/injection, schedule: Q04DX003 (ip), vehicle: saline
[4] = dose: 400.0 mg/kg/injection, schedule: Q04DX003 (ip), vehicle: saline
[5] = dose: 100.0 mg/kg/injection, schedule: Q01DX001 (ip), vehicle: saline
[6] = dose: 200.0 mg/kg/injection, schedule: Q01DX001 (ip), vehicle: saline
[7] = dose: 100.0 mg/kg/injection, schedule: Q01DX009 (ip), vehicle: Klucel (hydroxypropylcellulose) (HPC)
[8] = dose: 100.0 mg/kg/injection, schedule: Q04DX002 (ip), vehicle: Klucel (hydroxypropylcellulose) (HPC)
[9] = dose: 200.0 mg/kg/injection, schedule: Q01DX009 (ip), vehicle: Klucel (hydroxypropylcellulose) (HPC)
[10] = dose: 200.0 mg/kg/injection, schedule: Q04DX002 (ip), vehicle: Klucel (hydroxypropylcellulose) (HPC)
[11] = dose: 400.0 mg/kg/injection, schedule: Q01DX009 (ip), vehicle: Klucel (hydroxypropylcellulose) (HPC)
[12] = dose: 400.0 mg/kg/injection, schedule: Q04DX002 (ip), vehicle: Klucel (hydroxypropylcellulose) (HPC)
[13] = dose: 100.0 mg/kg/injection, schedule: Q01DX001 (ip), vehicle: saline with Tween-80
[14] = dose: 100.0 mg/kg/injection, schedule: Q01DX009 (ip), vehicle: saline with Tween-80
[15] = dose: 200.0 mg/kg/injection, schedule: Q01DX001 (ip), vehicle: saline with Tween-80
[16] = dose: 200.0 mg/kg/injection, schedule: Q01DX009 (ip), vehicle: saline with Tween-80
[17] = dose: 200.0 mg/kg/injection, schedule: Q04DX003 (ip), vehicle: Klucel (hydroxypropylcellulose) (HPC)
[18] = dose: 400.0 mg/kg/injection, schedule: Q04DX003 (ip), vehicle: Klucel (hydroxypropylcellulose) (HPC)
[19] = dose: 50.0 mg/kg/injection, schedule: Q01DX009 (ip), vehicle: saline with Tween-80
[20] = dose: 100.0 mg/kg/injection, schedule: Q04DX002 (ip), vehicle: saline with Tween-80
[21] = dose: 100.0 mg/kg/injection, schedule: Q04DX003 (ip), vehicle: saline with Tween-80
[22] = dose: 200.0 mg/kg/injection, schedule: Q04DX002 (ip), vehicle: saline with Tween-80
[23] = dose: 200.0 mg/kg/injection, schedule: Q04DX003 (ip), vehicle: saline with Tween-80
[24] = dose: 400.0 mg/kg/injection, schedule: Q04DX003 (ip), vehicle: saline with Tween-80
[25] = dose: 400.0 mg/kg/injection, schedule: Q01DX009 (ip), vehicle: saline with Tween-80
[26] = dose: 100.0 mg/kg/injection, schedule: Q04DX002 (ip), vehicle: saline
[27] = dose: 200.0 mg/kg/injection, schedule: Q04DX002 (ip), vehicle: saline
[28] = dose: 400.0 mg/kg/injection, schedule: Q04DX002 (ip), vehicle: saline

Measured: T/C

COc1ccc(/C=C/[N+](=O)[O-])cc1
inactive: dose: 6.25 mg/kg/injection, schedule: Q04DX002 (ip), vehicle: saline with Tween-80 97 % of control | dose: 12.5 mg/kg/injection, schedule: Q04DX002 (ip), vehicle: saline with Tween-80 93 % of control | dose: 25.0 mg/kg/injection, schedule: Q04DX002 (ip), vehicle: other 96 % of control | dose: 25.0 mg/kg/injection, schedule: Q04DX002 (ip), vehicle: saline with Tween-80 89 % of control | dose: 25.0 mg/kg/injection, schedule: Q04DX003 (ip), vehicle: Klucel (hydroxypropylcellulose) (HPC) 100 % of control | dose: 50.0 mg/kg/injection, schedule: Q04DX003 (ip), vehicle: Klucel (hydroxypropylcellulose) (HPC) 103 % of control | [1] 95 % of control

CC(=O)Nc1ccc(Cl)cc1C(=O)c1ccc[nH]1
inactive: dose: 50.0 mg/kg/injection, schedule: Q01DX009 (ip), vehicle: saline 110 % of control | dose: 100.0 mg/kg/injection, schedule: Q01DX009 (ip), vehicle: saline 104 % of control | [2] 106 % of control | dose: 200.0 mg/kg/injection, schedule: Q01DX009 (ip), vehicle: saline 103 % of control | [3] 108 % of control | dose: 400.0 mg/kg/injection, schedule: Q01DX009 (ip), vehicle: saline 98 % of control | [4] 93 % of control

O=[N+]([O-])c1ccc(/C=C/C2OCCO2)cc1
inactive: dose: 50.0 mg/kg/injection, schedule: Q01DX001 (ip), vehicle: saline 98 % of control | [5] 96 % of control | [6] 101 % of control

Cc1ccc(N=Nc2ccc(C)cc2NC(=O)c2cccc3ccccc23)cc1
inactive: [7] 92 % of control | [8] 104 % of control | [9] 100 % of control | [10] 96 % of control | [11] 95 % of control | [12] 93 % of control

Nc1ccc(OCCCOc2ccccc2)cc1
inactive: [13] 102 % of control | [14] 101 % of control | [15] 102 % of control | [16] 112 % of control | dose: 400.0 mg/kg/injection, schedule: Q01DX001 (ip), vehicle: saline with Tween-80 97 % of control

CCCCOCCOCCOc1ccc(C(=O)OC)cc1
inactive: dose: 100.0 mg/kg/injection, schedule: Q01DX001 (ip), vehicle: saline sonified 103 % of control | dose: 200.0 mg/kg/injection, schedule: Q01DX001 (ip), vehicle: saline sonified 96 % of control | dose: 400.0 mg/kg/injection, schedule: Q01DX001 (ip), vehicle: saline sonified 100 % of control

COc1nc(N/N=C/c2ccccc2O)ccc1[N+](=O)[O-]
inactive: [1] 93 % of control | [17] 93 % of control | [18] 95 % of control

C(=C\c1ccccn1)/c1ccccc1
inactive: [1] 100 % of control | [17] 94 % of control | [18] 103 % of control

CC(C)CCCC(C)CC1CC(C)CCC1O (stereo not given)
inactive: [7] 93 % of control | [1] 98 % of control | [9] 92 % of control | [17] 94 % of control | [11] 101 % of control | [18] 96 % of control

CCOC(=O)c1csc(/C=C/c2ccc([N+](=O)[O-])o2)n1
inactive: [1] 89 % of control | [17] 92 % of control

COc1cccc(C(C)(C)CO)c1
inactive: [19] 93 % of control | [14] 89 % of control | [16] 89 % of control

CCOC(=O)c1cccc2nc3n(c12)CCC3
inactive: [19] 105 % of control | [13] 101 % of control | [14] 95 % of control | [15] 103 % of control | [16] 94 % of control

CCNc1ccc(/C=C2\C=Cc3ccccc32)cc1
inactive: dose: 25.0 mg/kg/injection, schedule: Q01DX009 (ip), vehicle: Klucel (hydroxypropylcellulose) (HPC) 96 % of control | dose: 50.0 mg/kg/injection, schedule: Q01DX009 (ip), vehicle: Klucel (hydroxypropylcellulose) (HPC) 102 % of control | dose: 75.0 mg/kg/injection, schedule: Q01DX001 (ip), vehicle: olive oil, sesame oil, peanut oil 103 % of control | [7] 96 % of control | dose: 150.0 mg/kg/injection, schedule: Q01DX001 (ip), vehicle: olive oil, sesame oil, peanut oil 108 % of control

c1ccc2c(c1)Cc1cc(NC3=NCCO3)ccc1-2
inactive: dose: 50.0 mg/kg/injection, schedule: Q04DX002 (ip), vehicle: saline with Tween-80 93 % of control | [20] 100 % of control | [21] 101 % of control | [22] 104 % of control | [23] 89 % of control | dose: 400.0 mg/kg/injection, schedule: Q04DX002 (ip), vehicle: saline with Tween-80 93 % of control | [24] 87 % of control

C=C(C)C(O)CC(C)C (stereo not given)
inactive: dose: 100.0 mg/kg/injection, schedule: Q01DX001 (ip), vehicle: carboxymethylcellulose (CMC) 100 % of control | dose: 200.0 mg/kg/injection, schedule: Q01DX001 (ip), vehicle: carboxymethylcellulose (CMC) 100 % of control | dose: 400.0 mg/kg/injection, schedule: Q01DX001 (ip), vehicle: carboxymethylcellulose (CMC) 94 % of control

O=C(COCC(=O)N/N=C/c1ccc(Cl)c(Cl)c1)N/N=C/c1ccc(Cl)c(Cl)c1
inactive: dose: 6.25 mg/kg/injection, schedule: Q01DX009 (ip), vehicle: saline with Tween-80 92 % of control | dose: 12.5 mg/kg/injection, schedule: Q01DX009 (ip), vehicle: saline with Tween-80 90 % of control | dose: 25.0 mg/kg/injection, schedule: Q01DX009 (ip), vehicle: saline with Tween-80 89 % of control | [23] 86 % of control

COc1ccc(C(=O)CCC(=O)O)cc1
inactive: [14] 102 % of control | [16] 93 % of control | [25] 91 % of control

CC(=O)c1ccc2[nH]c(C)cc(=O)c2c1
inactive: [5] 94 % of control | [6] 107 % of control | dose: 400.0 mg/kg/injection, schedule: Q01DX001 (ip), vehicle: saline 96 % of control

O=C1Nc2ccc(Br)cc2C1=Nc1ccc2c(c1)OCO2
inactive: [8] 100 % of control | [10] 95 % of control | [12] 100 % of control

O=C(NCc1ccc(Cl)c(Cl)c1)Nc1ccccc1F
inactive: [7] 101 % of control | [8] 102 % of control | [9] 104 % of control | [10] 105 % of control | [11] 101 % of control | [12] 97 % of control

Cc1ncc(CO)c(Cc2ccccc2N(C)C)c1O
inactive: [20] 92 % of control | [22] 95 % of control

Cc1ccc2nc[nH]c(=O)c2c1
inactive: [8] 106 % of control | [10] 103 % of control | [12] 103 % of control

Cc1cc(=O)[nH]c(NCCCC(N)C(=O)O)n1 (stereo not given)
inactive: [26] 104 % of control | [27] 101 % of control | [28] 96 % of control

O=S1(=O)CS(=O)(=O)CS(=O)(=O)C1
inactive: [26] 108 % of control | [27] 119 % of control | [28] 101 % of control

CC1=CC(=O)C2CCC=C(C(=O)O)C2(C)C1=O (stereo not given)
inactive: dose: 100.0 mg/kg/injection, schedule: Q04DX003 (ip), vehicle: alcohol 97 % of control | dose: 200.0 mg/kg/injection, schedule: Q04DX003 (ip), vehicle: alcohol 102 % of control | dose: 400.0 mg/kg/injection, schedule: Q04DX003 (ip), vehicle: alcohol 97 % of control

CCOC(=O)c1ccc(N2C(=O)c3cccc4cccc(c34)C2=O)cc1
inactive: [14] 95 % of control | [21] 103 % of control | [16] 89 % of control | [23] 98 % of control | [25] 89 % of control | [24] 95 % of control

CC(NC(=O)/C=C\C(=O)O)c1ccccc1 (stereo not given)
inactive: [2] 92 % of control | [3] 102 % of control | [4] 103 % of control
